Assays:
[1] = test system: non-transformed Arabidopsis thaliana Col.O seedlings; experiment: Selection of transgenic Arabidopsis seedlings on trehalose medium; type: in vivo; conditions: 100 mM trehalose, 1/2 MS agar, after 12 days at 22° C.
Procedure: Arabidopsis thaliana Col.O plants were transformed with Aarobacterium with the binary plasmid as described in Example 2C, via the “floral dip” protocol (Clough and Bent, supra). The obtained dry seeds were sterilized and sown on 0.8% w/v solid agar medium having therein half-strength MS-salts (½ MS-salts), vitamins and MES buffer pH 5.7, supplemented with trehalose in a final concentration of 100 mM. The dishes were incubated for 3 days at 4° C. (stratification), whereafter a drop of ethanol was applied to the inside of the cover and dishes were transferred to 22° C. […] The transformed resistant seedlings are green, have long roots and primary leaves. […] In moist conditions the cotyledons become pale.

[2] = test system: Arabidopsis thaliana Col. O and La-er seedlings; experiment: Sensitivity to trehalose of Arabidopsis thaliana seedlings (Col.O and La-er) on agar medium; type: in vivo; conditions: 100 mM trehalose in 0.8% agar, half-strength MS medium, pH 5.7; compared with 100 mM mannitol control
Procedure: Seeds were sterilized using the gas-phase protocol of Clough and Bent (1998) (Clough S. J., Bent A. F., Plant J. 16(6): 735-743, 199.8) in Eppendorf tubes. The sterilized sees were then resuspended in sterile water and arranged on 0.8% w/v agar medium containing half-strength Murashigue and Skoog medium (MS medium; Murashigue T, Skoog F, Physiol. Plant. 15: 473-497, 1977), vitamins and MES buffer (pH 5.7), supplemented with mannitol or trehalose in a final concentration of 100 mM. […] The upper row of plants are the Arabidopsis thaliana Landsberg erecta (La-er), and the lower row of plants are the Arabidopsis thaliana Colombia (Col.O).

Question: What does the source list for `OC[C@H]1O[C@H](O[C@H]2O[C@H](CO)[C@@H](O)[C@H](O)[C@H]2O)[C@H](O)[C@@H](O)[C@@H]1O` [trehalose, Trehalose]?
Answer: phenotype of non-transformed, sensitive seedlings [1]: accumulate anthocyanins, develop no primary leaves; root length of non-transformed, sensitive seedlings [1]: ≤ 3 mm; development of plants from seeds (root system) [2]: lesser development
